Assay type in all cases: cell-based
Experiment [1] relates to Human umbilical vein endothelial cells (HUVECs). Briefly: LC/MS proteomics of HUVECs treated with EPA or DHA and challenged with IL-6. The following applies: for number of proteins whose expression was significantly repressed / number of proteins whose expression was significantly stimulated: compared with IL-6 alone. Here is the method:
Human umbilical vein endothelial cells (HUVECs) were isolated into primary cultures from female donors by Clonetics (San Diego, California) and purchased as proliferating cells. All cell culture donors were healthy, with no pregnancy or prenatal complications. The cultured cells were incubated in 95% air/5% CO2 at 37° C. and passaged by an enzymatic (trypsin) procedure. The confluent cells (4 to 5×10^5 cells/35 mm dish) were placed with minimum essential medium containing 3 mM L-arginine and 0.1 mM BH4 [(6R)-5,6,7,8-tetrahydrobiopterin]. Before experimental use, the cells (from second or third passage) were rinsed twice with Tyrode-HEPES buffer with 1.8 mM CaCl2).
EPA and DHA were purchased from Sigma-Aldrich (St. Louis, MO) and prepared initially in redistilled ethanol. Primary and secondary stock solutions were prepared and stored under nitrogen at −20° C.
HUVECs were treated with vehicle, EPA, or DHA (10 μM) for 2 hours, and then challenged with IL-6 (12 ng/mL) for 24 h hours. After incubation, cells were pelleted and frozen at −80° C. until proteomic analysis was performed.
Relative protein expression levels among the various treatments were measured using LC/MS proteomic techniques. Following protein digest, peptides are separated over a reverse phase column and then identified based on their mass.
Cell pellets were lysed using methanol/chloroform extraction. Proteins were denatured, reduced, alkylated, and trypsin digested. Samples were then prepared for Tandem Mass Tag (TMT) 10plex labeling. A bicinchoninic acid (BCA) assay was performed on each sample to quantify the total protein in each sample, which is important to confirm equal amounts of each sample are added to the multiplex sample. Each peptide in a sample was given a unique, low molecular weight (typically 126-130 Da), and then the samples were combined.
Each multiplexed sample was then fractionated to increase the overall protein coverage using high pH reversed phase fractionation and analyzed by LC/MS using a Dionex UltiMate 3000 RSLC in tandem with a Q-Exactive/Lumos Orbitrap Mass Spectrometer. The chromatography was performed using a 2-hour gradient on a Thermo Pepmap C18 column (100 Å pore size, 3.0 μm particle size, […]) set at 50° C. Mobile phase A was water with 0.1% formic acid, and mobile phase B was acetonitrile with 0.1% formic acid.
A bioinformatic package was applied to all the mass spectrometry intensity data known as Differential Enrichment analysis of Proteomics data (DEP) to process proteomic data (FIGS. 35-37).

A further experiment relates to brain endothelial cells. Briefly: IL-6 provoked-inflammation cell culture, proteomics. The following applies: brain endothelial cells provoked with IL-6. The text has this: (§1) FIG. 34B presents results from a provoked-inflammation cell-culture study with proteomics outcomes, wherein endothelial cells from various tissues were exposed to the inflammatory cytokine IL-6 in the absence or presence of EPA. […] Also of interest are related increases in proteins involved in the related antioxidant ferritin in vascular endothelial cells. Finally fatty acid desaturase 1 (FADS1) encodes the Δ5-desaturase enzyme and fatty acid desaturase 2 (FADS2) encodes the […] enzyme.
(§2) In a series of tissue culture experiments cells were provoked with IL-6 to induce an inflammatory and cellular injury response, and EPA added to determine whether it moderated proteins involved in injury responses. […] Thus, the proteomics results not only affirm the ability of EPA to promote HO-1, but also confirm the ability of EPA to inhibit […], corroborating the aforementioned ability of EtEPA to suppress the Δ5-desaturase index, for example.

Experiment [2] relates to pulmonary endothelial cells. The experiment is described as above. The following applies: pulmonary endothelial cells provoked with IL-6.
Excerpt: as §1, §2

In experiment [3] the test system is vascular endothelial cells. The description is as above. The following applies: vascular endothelial cells provoked with IL-6.
Excerpt: as §1, §2

The subject of experiment [4] is Primary human lung microvascular endothelial cells (HMVEC-Ls, PECs). Put plainly: LC/MS proteomics of pulmonary endothelial cells exposed to air pollution particulate matter. The protocol:
Primary human lung microvascular endothelial cells (HMVEC-Ls, PECs) were purchased from Lonza (Manassas, VA). Cells were cultured in complete endothelial cell growth medium and maintained at 37° C. in a 95% air/5% CO2 humidified incubator. Cells were supplied with fresh medium every other day and propagated by an enzymatic (trypsin) procedure. Cell culture medium also contained 2% FBS to facilitate fatty acid treatment.
EPA was purchased from Sigma-Aldrich (Saint Louis, MO) and solubilized in redistilled ethanol under nitrogen atmosphere and stored at −20° C.
Urban air particulate matter and fine particulate matter were purchased from Sigma-Aldrich (SRM 1648a), catalog #: NIST1648a3110 and NIST27863110. The mean particle diameters were 5.85 and 2.8 μm, respectively.
PECs were pre-treated with EPA (40 μM) for 2 hours in 2% FBS-containing medium and then challenged with urban particulate matter (50 μg/mL) for 2 hours. After 2 hours, media was washed out and HBSS buffer was added. After incubation, cells were pelleted and frozen at −80° C. until proteomic analysis was performed. Relative protein expression levels among the various treatments were measured using LC/MS proteomic techniques (FIG. 40).
Cell pellets were lysed using methanol/chloroform extraction. Proteins were then denatured, reduced, alkylated, and trypsin digested. Samples were labeled by Tandem Mass Tag (TMT) 10plex labeling to multiplex the samples and ensure that the injection, LC, and MS conditions are identical for each sample. A bicinchoninic acid (BCA) assay was performed to quantify the total protein in each sample. Each peptide in a sample was given a unique, low molecular weight (typically 126-130 Da), and then the samples were combined.
Each multiplexed sample was then fractionated to increase the overall protein coverage using high pH reversed phase fractionation and analyzed by LC/MS using a Dionex UltiMate 3000 RSLC in tandem with a Q-Exactive/Lumos Orbitrap Mass Spectrometer.
A ComBat function was applied to all mass spectrometry intensity data to correct for batch effects. The bioinformatic package Differential Enrichment analysis of Proteomics data (DEP) was used to process proteomic data and generate the figures.

Setting [5] is: 10 μM for 2 hours, then IL-6 (12 ng/mL) 24 h, vs IL-6 alone.

Two compounds from patent US20240165066A1, “LYMPH-RELEASING COMPOSITIONS OF FATTY ACIDS AND USES THEREOF FOR LYMPHATIC INCORPORATION AND SYSTEMIC DISEASE TREATMENT” (Amarin Pharmaceuticals Ireland Limited, priority 2022, published 2024) can be followed below.

For the compound `CC/C=C\C/C=C\C/C=C\C/C=C\C/C=C\C/C=C\CCC(=O)O` [DHA, docosahexaenoic acid], in experiment [1] (setting [5]), the GSR protein change is 1.2-fold increase,, the PRDX1 protein change was 1.1-fold increase,, the PRDX3 protein change is recorded as 1.1-fold increase, and the PRDX4 protein change is given as 1.5-fold increase. In addition, in experiment [1] (setting [5]), the PRDX5 protein change is reported as 1.1-fold increase,, the PRDX6 protein change is 1.3-fold decrease and the TXN protein change is on record as 1.2-fold increase,. For the same compound, in experiment [1], the “number of proteins whose expression was significantly repressed” value is reported as 767 proteins and the “number of proteins whose expression was significantly stimulated” value is given as 864 proteins.
`CC/C=C\C/C=C\C/C=C\C/C=C\C/C=C\CCCC(=O)O` [EPA, eicosapentaenoic acid]: in the experiment with brain endothelial cells, the “HO-1 protein, EPA+IL-6 vs IL-6 alone” value is 1.5 fold. Also, the “HO-1 protein, EPA+IL-6 vs IL-6 alone” value in experiment [2] amounted to 1.9 fold. Moreover, the “HO-1 protein, EPA+IL-6 vs IL-6 alone” value in experiment [3] was found to be 2.2 fold. Moreover, in experiment [1] (setting [5]), the DDAH-1 protein change is recorded as 1.1-fold increase,, the DDAH-2 protein change was 1.1-fold increase,, the GSR protein change is 1.1-fold increase, and the PRDX1 protein change was 1.1-fold increase,. In experiment [1] (setting [5]), the PRDX2 protein change is given as 1.1-fold increase,, the PRDX5 protein change is 1.1-fold increase, and the TXN protein change is given as 1.2-fold increase,. In experiment [1], the “number of proteins whose expression was significantly repressed” value is 472 proteins and the “number of proteins whose expression was significantly stimulated” value is 544 proteins. In addition, in experiment [4] (EPA (40 μM) relative to fine PMs), the “number of proteins with significantly modulated expression” value is listed as 205 proteins. Also, the “number of proteins with significantly modulated expression” value in experiment [4] (EPA (40 μM) relative to urban PMs) was 347 proteins. Also, in experiment [4] (Fine PM vs EPA + Fine PM), the “# of Proteins Decreased Expression by Treatment, Neutrophil Degranulation Pathway (GO: 0043312)” value is listed as 11 and the “# of Proteins Increased Expression by Treatment, Neutrophil Degranulation Pathway (GO: 0043312)” value is listed as 11. Besides, in experiment [4] (Urban PM vs EPA + Urban PM), the “# of Proteins Decreased Expression by Treatment, Neutrophil Degranulation Pathway (GO: 0043312)” value is 19 and the “# of Proteins Increased Expression by Treatment, Neutrophil Degranulation Pathway (GO: 0043312)” value was 16. Also, the “number of proteins associated with neutrophil degranulation modulated by EPA treatment” value in experiment [4] (compared to fine PMs) amounted to 22 proteins. Moreover, the “number of proteins associated with neutrophil degranulation modulated by EPA treatment” value in experiment [4] (compared to urban PMs) is given as 35 proteins.
